Values joined by “and” are separate entries in the source; they are usually repeats but may differ in a detail not shown here. Equal entries are not always repeated. “Also recorded” adds a separate entry of the source.
Tested on: R/R DLBCL/HGBL patients with MYC-altered disease
Experiment: Phase 1 and phase 2 clinical studies of fimepinostat, response and survival outcomes
Assay type: in vivo, human
Excerpt: Included subjects were enrolled in either the dose escalation and expansion portion of the phase 1 study evaluating fimepinsotat with or without rituximab (part 1) or the phase 2 study with fimepinostat monotherapy.
For the phase 1/part 1 study, key inclusion criteria were ≥18 years of age with histopathologically confirmed diagnosis of DLBCL or transformed follicular lymphoma (tFL) refractory to or relapsed after at least 2 prior regimens, Eastern Cooperative Oncology Group (ECOG) performance status 0-2, measurable disease on baseline radiographic assessment and adequate hematologic and organ function. Key exclusion criteria were receipt of systemic anti-cancer therapy within 3 weeks of study entry, ongoing treatment with chronic immunosuppressive therapy, active CNS lymphoma and gastrointestinal conditions which may interfere with absorption of fimepinostat. For the phase 2 study, key inclusion criteria were ≥18 years of age with histopathologically confirmed diagnosis of DLBCL, HGBL or tFL refractory to or relapsed after 2-4 prior lines of therapy for the treatment of de novo DLBCL and ineligible for (or failed) autologous or allogeneic stem cell transplant (SCT), Eastern Cooperative Oncology Group (ECOG) performance status 0-1, measurable disease on baseline radiographic assessment, confirmed availability of viable tissue (defined as most recent available archival tumor tissue, or fresh tumor samples) for central laboratory FISH and IHC testing prior to study dosing and adequate hematologic and organ function. Key exclusion criteria were receipt of systemic anti-cancer therapy within 2 weeks of study entry or experimental therapy within 5 terminal half-lives (t1/2) or 4 weeks prior to enrollment, known primary mediastinal, ocular, epidural, testicular or breast lymphoma and current or planned glucocorticoid therapy with the exception of doses ≤10 mg/day prednisolone or equivalent.
Patients received fimepinostat capsules (Pharmatek Laboratories Inc., San Diego, CA, USA) orally, within 30 minutes of a meal, in 21-day cycles until disease progression was documented or other discontinuation criteria were met. In the phase 2 protocol, change in dose and/or schedule intensity of fimepinostat were allowed as per protocol due to toxicity. Safety and tolerability were assessed by the incidence and severity of adverse events as determined by NCI Common Terminology Criteria for Adverse Events (CTCAE v4.03) in both protocols.
The intention to-treat-population included al patients from both protocols who received at least one dose of fimepinostat. The evaluable population includes all patients who received at least one dose of study drug (phase 1) or one full cycle of treatment (phase 2) and completed at least one post-baseline disease assessment. Patients were re-staged according to the Revised Response Criteria for Malignant Lymphoma.^18
MYC-altered disease was defined as one or more of the following results from central testing of tumor samples: expression of MYC protein in ≥40% of lymphoma cells by immunohistochemical staining (IHC), MYC rearrangement by fluorescence in situ hybridization (FISH) or >2 copies of MYC in by FISH. IHC staining of MYC (rabbit clone Y69) and BCL2 (mouse clone 124) for patients enrolled in the phase 1 study (note MYC FISH was not centrally performed in this study) were performed by Mosaic Laboratories, LLC (Lake Forest, CA, USA). IHC staining of MYC (rabbit clone Y69) and BCL2 (mouse clone 124) as well as FISH with MYC (8q24) and BCL6 (3q27) break apart probes and BCL2 (t(14;18)) fusion probe for patients enrolled in the phase 2 study were performed by NeoGenomics Laboratories, Inc (Fort Myers, FL, USA), with positive cutoff values for MYC rearrangement (>10%), MYC copy number gain (>20%), BCL2 rearrangement (≥0.5%) and BCL6 rearrangement (>10%) as defined per laboratory standard. […]

[1] = evaluable population (n = 43), 60 mg by mouth 5 days on/2 days off
[2] = evaluable population (n = 43), estimated
[3] = individual patients achieving partial or complete response (Subject ID 1-9)

COc1ccc(-c2nc(N3CCOCC3)c3sc(CN(C)c4ncc(C(=O)NO)cn4)cc3n2)cn1 [fimepinostat, Fimepinostat]
Responding patients who remained on treatment for over 2 years without disease progression, number (9 responding patients): 4 | Overall response rate (evaluable population (n = 43)): 21% | Overall response, number of patients (evaluable population (n = 43)): 9 | Partial response, number of patients (evaluable population (n = 43)): 3 | Progressive disease, number of patients (evaluable population (n = 43)): 26 | Complete response, % of patients [1]: 14% | Complete response, number of patients [1]: 6 | Alive at 6 months [2]: 54% (95% CI 37-68%) | Progression free at 6 months [2]: 18% (95% CI 8-31%) | DOR (duration of response) [3]: 30.0 months and 24.4 months and 23.8 months and 1.0/1.0 months and 4.2 months and 4.1 months (2×) and 2.8 months and 40.5 months | Status at end of study [3]: Alive; also recorded: Deceased | TTR (time to response) [3]: 2.7 months and 2.8 months (3×) and 1.0/1.0 months and 1.3 months (2×) and 4.0 months and 1.2 months | Median duration of response (responding patients of evaluable population): Not yet reached (95% CI 1.4 months-
